From the NIST ThermoML archive (doi:10.1007/s10765-019-2537-x)
Several values for one entry are separate records, joined by “and”; a condition that tells them apart may be missing. Identical values can stand only once. Numbers after ± are expanded uncertainties.

Conditions: Liquid, transient hot wire

CCCCCCCCCCCCCCC [pentadecane]
Conditions	thermal conductivity
436.95 K, 5250 kPa	0.111 ± 0.04 W/m/K
436.98 K, 10580 kPa	0.1145 ± 0.04 W/m/K
437.06 K, 1280 kPa	0.1105 ± 0.04 W/m/K
437.06 K, 15070 kPa	0.1143 ± 0.04 W/m/K
437.08 K, 15070 kPa	0.1135 ± 0.04 W/m/K
437.1 K, 5250 kPa	0.1106 ± 0.04 W/m/K
437.1 K, 15070 kPa	0.1133 ± 0.04 W/m/K
437.11 K, 1280 kPa	0.1079 ± 0.04 W/m/K
437.12 K, 10470 kPa	0.1112 ± 0.04 W/m/K
437.14 K, 5250 kPa	0.1103 ± 0.04 W/m/K
437.25 K, 1280 kPa	0.1089 ± 0.04 W/m/K
456.48 K, 20550 kPa	0.1176 ± 0.04 W/m/K
456.52 K, 20460 kPa	0.1176 ± 0.04 W/m/K
456.66 K, 20460 kPa	0.113 ± 0.04 W/m/K
456.86 K, 15300 kPa	0.1132 ± 0.04 W/m/K
456.9 K, 15300 kPa	0.1124 ± 0.04 W/m/K
456.94 K, 15300 kPa	0.1116 ± 0.04 W/m/K
457.02 K, 1540 kPa	0.1032 ± 0.04 W/m/K
457.03 K, 1550 kPa	0.1063 ± 0.04 W/m/K
457.03 K, 10370 kPa	0.1096 ± 0.04 W/m/K
457.04 K, 1560 kPa	0.1059 ± 0.04 W/m/K
457.18 K, 5400 kPa	0.1082 ± 0.04 W/m/K
457.32 K, 5440 kPa	0.1063 ± 0.04 W/m/K
457.33 K, 10250 kPa	0.1104 ± 0.04 W/m/K
457.37 K, 10270 kPa	0.1084 ± 0.04 W/m/K
457.4 K, 5440 kPa	0.1059 ± 0.04 W/m/K
476.68 K, 20310 kPa	0.114 ± 0.04 W/m/K
476.72 K, 15160 kPa	0.1061 ± 0.04 W/m/K
476.9 K, 20850 kPa	0.1106 ± 0.04 W/m/K
476.95 K, 15160 kPa	0.1094 ± 0.04 W/m/K
476.97 K, 10330 kPa	0.1092 ± 0.04 W/m/K
477 K, 15160 kPa	0.1082 ± 0.04 W/m/K
477.06 K, 20970 kPa	0.1128 ± 0.04 W/m/K
477.24 K, 5120 kPa	0.1033 ± 0.04 W/m/K
477.29 K, 1080 kPa	0.0998 ± 0.04 W/m/K
477.29 K, 10330 kPa	0.1023 ± 0.04 W/m/K
477.3 K, 5120 kPa	0.1024 ± 0.04 W/m/K
477.3 K, 10330 kPa	0.1044 ± 0.04 W/m/K
477.32 K, 5120 kPa	0.1031 ± 0.04 W/m/K
477.33 K, 1080 kPa	0.0988 ± 0.04 W/m/K
477.61 K, 1080 kPa	0.1038 ± 0.04 W/m/K
496.62 K, 20420 kPa	0.111 ± 0.04 W/m/K
496.9 K, 20420 kPa	0.1069 ± 0.04 W/m/K
496.94 K, 10500 kPa	0.102 ± 0.04 W/m/K
496.95 K, 5430 kPa	0.0983 ± 0.04 W/m/K
496.95 K, 20420 kPa	0.1039 ± 0.04 W/m/K
496.96 K, 15010 kPa	0.1033 ± 0.04 W/m/K
496.97 K, 15010 kPa	0.1021 ± 0.04 W/m/K and 0.105 ± 0.04 W/m/K
497 K, 10530 kPa	0.1008 ± 0.04 W/m/K
497.04 K, 10470 kPa	0.1024 ± 0.04 W/m/K
497.1 K, 5410 kPa	0.0981 ± 0.04 W/m/K
497.15 K, 5430 kPa	0.0965 ± 0.04 W/m/K
516.81 K, 15180 kPa	0.104 ± 0.04 W/m/K
516.84 K, 20110 kPa	0.0998 ± 0.04 W/m/K
516.89 K, 20110 kPa	0.1031 ± 0.04 W/m/K
517 K, 15180 kPa	0.0984 ± 0.04 W/m/K
517 K, 20100 kPa	0.1021 ± 0.04 W/m/K
517.03 K, 15180 kPa	0.099 ± 0.04 W/m/K
517.12 K, 5490 kPa	0.0948 ± 0.04 W/m/K
517.19 K, 5490 kPa	0.094 ± 0.04 W/m/K
517.2 K, 5490 kPa	0.0941 ± 0.04 W/m/K
536.59 K, 20650 kPa	0.1039 ± 0.04 W/m/K and 0.1025 ± 0.04 W/m/K
536.85 K, 20650 kPa	0.0995 ± 0.04 W/m/K
536.99 K, 15650 kPa	0.1001 ± 0.04 W/m/K
537.13 K, 15650 kPa	0.0975 ± 0.04 W/m/K
537.14 K, 10120 kPa	0.0972 ± 0.04 W/m/K
537.39 K, 5310 kPa	0.0872 ± 0.04 W/m/K
556.55 K, 5420 kPa	0.0851 ± 0.04 W/m/K
556.82 K, 15300 kPa	0.1002 ± 0.04 W/m/K
556.9 K, 20180 kPa	0.0999 ± 0.04 W/m/K
556.93 K, 10380 kPa	0.0967 ± 0.04 W/m/K
557 K, 20180 kPa	0.0986 ± 0.04 W/m/K
557.05 K, 10380 kPa	0.0943 ± 0.04 W/m/K
557.06 K, 20180 kPa	0.098 ± 0.04 W/m/K
557.12 K, 15300 kPa	0.0941 ± 0.04 W/m/K
557.14 K, 15300 kPa	0.0924 ± 0.04 W/m/K
576.55 K, 20450 kPa	0.0998 ± 0.04 W/m/K
576.95 K, 20450 kPa	0.0961 ± 0.04 W/m/K
577.01 K, 10240 kPa	0.0944 ± 0.04 W/m/K
577.06 K, 20450 kPa	0.0928 ± 0.04 W/m/K
577.08 K, 15190 kPa	0.0923 ± 0.04 W/m/K
577.1 K, 5140 kPa	0.0897 ± 0.04 W/m/K
577.12 K, 10300 kPa	0.0889 ± 0.04 W/m/K
577.12 K, 15190 kPa	0.0924 ± 0.04 W/m/K
577.15 K, 15190 kPa	0.09 ± 0.04 W/m/K
577.16 K, 10320 kPa	0.0907 ± 0.04 W/m/K
577.17 K, 5140 kPa	0.0888 ± 0.04 W/m/K
577.25 K, 5140 kPa	0.0876 ± 0.04 W/m/K
